The values that follow come from patent US20060079453A1, “Hla binding peptides and their uses” (priority 2002, published 2006).

One test deals with HLA-B*1801 (Homo sapiens, UniProt P01889, A329T/A93T/A95T/C349S/D201E/D54G/D98Y/E176V/E187T/E204Q/E69T/K202T/Q94N/R155S/R180L/S121R/V306I/Y140S/Y195H/Y33H/Y91S). As to the kind of experiment: biochemical. The format is binding.
For a further test, the target named is HLA-B*4001 (Homo sapiens, UniProt P01889, A65T/A93T/A95T/D138N/D98Y/E176V/E69K/N87E/Q56L/Q94N/R180L/S121R/S35A/S48T/T167S/V36M/W171L/Y33H/Y91S). As to the kind of experiment: biochemical. The class given is binding.
For the next test, the target named is HLA-B*4002 (Homo sapiens, UniProt P01889, A65T/A93T/A95T/D138N/D201E/D98Y/E176V/E204Q/E69K/K202T/N87E/Q56L/Q94N/R180L/S48T/Y33H/Y91S). Put plainly: biochemical. The format is binding.
The target in the next test is HLA-B*4402 (Homo sapiens, UniProt P01889, A223V/A65T/A93T/A95T/D201E/D98Y/E176V/E187L/E204Q/E69K/G107R/H137Y/K202T/L105A/L119I/N104T/N87E/Q56L/Q94N/R106L/R155S/R180D/S101N/S121R/S35A/S48T/T118I/V36M/W191S/Y140D/Y91S). Put plainly: biochemical. The format is binding.
A further test concerns the target HLA-B*4501 (Homo sapiens, UniProt P01889, A329T/A65T/A93T/A95T/C349S/D138N/D201E/D98Y/E176V/E187L/E204Q/E69K/H137Y/K202T/L119W/N87E/Q56L/Q94N/R155S/R180D/S121R/S35A/S48T/V127L/V306I/V36M/W191S/Y140L/Y33H/Y91S). As to the kind of experiment: biochemical. The class given is binding.
Another test deals with HLA-A*2301 (Homo sapiens, UniProt P04439, D101N/D140Y/D185E/E176V/E190D/F33S/G103R/G107R/H175R/I119L/I121M/I306V/K168Q/K335N/L105A/L300P/N151K/N90K/P307H/Q86E/Q94H/R106L/R138H/R89G/T104I/T345S/V100E/W191G/Y123F). Put plainly: biochemical. The format is binding.
The target of the next test is HLA-A*3002 (Homo sapiens, UniProt P04439, D101N/D140H/D185E/E176R/F33S/G80R/H175R/K168Q/Q94H/R138E/R41S/V100E). Put plainly: biochemical. The format is binding.
In a further test the target is HLA-A*2402 (Homo sapiens, UniProt P04439, D101N/D140Y/D185E/E176V/E190D/F33S/G103R/G107R/I119L/I121M/I306V/K335N/L105A/L180Q/L300P/N151K/N90K/Q86E/Q94H/R106L/R138H/R89G/T104I/T345S/V100E/W191G/Y123F). Put plainly: MHC molecular binding / Capture assay, IC50: A*2402.
Another test concerns the target HLA-A*2902 (Homo sapiens, UniProt P04439, A270S/D101N/D185E/E176V/E277Q/E87Q/F33T/G231S/H175R/I121M/I218V/I322F/K168Q/L300P/L318F/M331R/P208A/P217A/Q86L/T323A/T345S/V100A/V358M). As to the kind of experiment: MHC molecular binding / Capture assay, IC50: A*2902.

Where two headings read alike, the source gives them in different places. No end group written: not given here.

Take ADLMGYIPL: the IC50 against HLA-B*1801 (B*1801) is above 7.62 µM; against HLA-B*4001 (B*4001), 0.959 µM; against HLA-B*4002 (B*4002), 0.0047 µM; on HLA-B*4402 (B*4402), above 21.4 µM; against HLA-B*4501 (B*4501) it was above 49 µM.
As to AENLWVTVH, the IC50 against HLA-B*4001 turned out to be 0.493 µM; against HLA-B*4002 it was 0.151 µM; at HLA-B*4501 it was 0.12 µM.
Consider AENLFVTVY, for which the IC50 against HLA-B*1801 turned out to be 0.029 µM; against HLA-B*4001, 0.97 µM; against HLA-B*4002, 0.334 µM; at HLA-B*4501 it was 0.232 µM.
For AENVWVTVY, the IC50 turned out to be 2.24 µM against HLA-B*4001, 0.386 µM against HLA-B*4002 and 0.737 µM against HLA-B*4501.
On to AEFLWVTVY, for which the IC50 at HLA-B*1801 stood at 0.131 µM; on HLA-B*4001 it was 0.183 µM; against HLA-B*4002, 0.24 µM; at HLA-B*4402 it was 1.01 µM; on HLA-B*4501, 0.472 µM.
For the sequence AENLWVTVG, the IC50 was 39.7 µM on HLA-B*1801, 0.861 µM on HLA-B*4001, 0.047 µM at HLA-B*4002 and 0.035 µM against HLA-B*4501.
Turning to AENFWVTVY, the IC50 amounted to 1.39 µM against HLA-B*4001, 0.542 µM against HLA-B*4002 and 0.289 µM against HLA-B*4501.
As to IEDPPYNSL, the IC50 turned out to be 35.5 µM against HLA-B*1801, 0.016 µM on HLA-B*4001, 0.688 µM against HLA-B*4002 and 18.7 µM against HLA-B*4501.
For AENLWVTVT, the IC50 was determined as 0.947 µM against HLA-B*4001, 0.0078 µM against HLA-B*4002, 2.7 µM against HLA-B*4402 and 0.01 µM against HLA-B*4501.
Take AEPAAEGVGAV: the IC50 was above 8.61 µM on HLA-B*1801, 20.4 µM against HLA-B*4001, above 23.9 µM against HLA-B*4402 and 1.5 µM on HLA-B*4501.
AENNWVTVY returned an IC50 against HLA-B*4501 of 0.099 µM.
Regarding AENLWVTLY, the IC50 is 0.392 µM against HLA-B*1801, 0.731 µM against HLA-B*4002, 0.199 µM at HLA-B*4402 and 0.349 µM on HLA-B*4501.
Regarding AENLWVTVV, the IC50 against HLA-B*1801 came to 10.7 µM; against HLA-B*4001, 0.084 µM; against HLA-B*4002 it was 0.019 µM; against HLA-B*4402, 5.76 µM; on HLA-B*4501, 0.035 µM.
For the sequence RFLSKISEF, the IC50 at HLA-A*2301 was found to be 0.0025 µM; at HLA-A*3002 it was 0.201 µM; on HLA-A*2402, 0.058 µM; at HLA-A*2902, 40.1 µM.
In the case of YEDLRVLSF, the IC50 stood at 0.02 µM against HLA-B*1801; 0.067 µM at HLA-B*4001; 0.071 µM at HLA-B*4002; 0.024 µM at HLA-B*4402; 18.7 µM at HLA-B*4501.
For the sequence KYSKSSIVGW, the IC50 is 0.491 µM against HLA-A*2301, above 34.5 µM against HLA-A*3002, 4.06 µM on HLA-A*2402 and above 69.4 µM on HLA-A*2902.
In the case of VYDFVFADF, the IC50 against HLA-A*2301 is 0.0022 µM; against HLA-A*3002, 3.96 µM; at HLA-A*2402, 0.0099 µM; on HLA-A*2902, 1.23 µM.
Regarding TENLWVTVY, the IC50 at HLA-B*4001 (B*4001) came out at 14 µM; on HLA-B*4501 (B*4501) it was 5.3 µM.
On to VYEFAFKDLF, for which the IC50 on HLA-A*2301 came out at 0.0017 µM; against HLA-A*3002 it was 2.04 µM; at HLA-A*2402, 0.015 µM; on HLA-A*2902 it was 1.97 µM.
As to LYYLFNQHI, the IC50 at HLA-A*2301 is 0.0014 µM; at HLA-A*3002 (A*3002 binding affinity (IC50)), 11 µM; at HLA-A*2402 it was 0.033 µM; on HLA-A*2902 (A*2902 binding affinity (IC50)) it was 20.1 µM.
As to VFADLRIVF, the IC50 against HLA-A*2301 amounted to 0.0025 µM; against HLA-A*3002, 24.1 µM; on HLA-A*2402 it was 0.023 µM; on HLA-A*2902 it was 0.087 µM.
The corresponding values for KFLFTDLRF are 0.00074 µM, 0.152 µM, 0.012 µM and 0.044 µM.
As for LYGDTLEQTF, the IC50 against HLA-A*2301 turned out to be 0.024 µM; at HLA-A*3002, 42 µM; on HLA-A*2402, 0.091 µM; on HLA-A*2902 it was 40.9 µM.
As to VYNFACTEF, the IC50 came out at 0.0021 µM against HLA-A*2301, 0.784 µM against HLA-A*3002, 0.014 µM at HLA-A*2402 and 0.774 µM at HLA-A*2902.
In the case of AFRDLCIVF, the IC50 turned out to be 0.369 µM at HLA-A*2301, 3.3 µM against HLA-A*3002, 1.01 µM on HLA-A*2402 and 6.72 µM at HLA-A*2902.
As to EYRHYQYSF, the IC50 against HLA-A*2301 turned out to be 0.0023 µM; on HLA-A*3002, 0.43 µM; at HLA-A*2402 it was 0.021 µM; at HLA-A*2902 it was 13.7 µM.
Turning to VYREGNPFGF, the IC50 on HLA-A*2301 stood at 0.091 µM; at HLA-A*3002, 21.9 µM; at HLA-A*2402 it was 0.197 µM; at HLA-A*2902 it was 11.1 µM.
Regarding QEILDLWVY, the IC50 came out at 0.052 µM against HLA-B*1801 (B*1801); 0.74 µM against HLA-B*4001 (B*4001); 4.52 µM on HLA-B*4002 (B*4002); 0.264 µM against HLA-B*4402 (B*4402); 6.26 µM on HLA-B*4501 (B*4501).
In the case of AENLWVTDY, the IC50 at HLA-B*1801 was found to be 1 µM; against HLA-B*4001 it was 0.93 µM; against HLA-B*4402 it was 0.191 µM; on HLA-B*4501, 0.328 µM.
Take AEKLWVTVY: the IC50 against HLA-B*4001 is 18.3 µM; against HLA-B*4402, 0.168 µM; on HLA-B*4501, 0.219 µM.
DEIGVIDLY: the IC50 against HLA-B*4001 (B*4001) was above 114 µM; against HLA-B*4002 (B*4002), above 77.3 µM; against HLA-B*4402 (B*4402), 0.707 µM; at HLA-B*4501 (B*4501), above 49 µM.
For the sequence AENLWVTVS, the IC50 at HLA-B*1801 worked out at 25.7 µM; at HLA-B*4402 it was 4.22 µM; against HLA-B*4501, 0.034 µM.
Take TFGWCFKF: the IC50 at HLA-A*2301 was 0.462 µM; against HLA-A*3002, above 10.1 µM; on HLA-A*2402 it was 3.42 µM; at HLA-A*2902, 4.45 µM.
On to CEKCSKPCARV, for which the IC50 on HLA-B*4501 (read-out: B*4501) worked out at 1.56 µM.
Consider VYCKTVLEF, for which the IC50 on HLA-A*2301 stood at 0.0047 µM; against HLA-A*3002, 1.14 µM; on HLA-A*2402, 0.05 µM; at HLA-A*2902, 0.61 µM.
As to RYHSIAGQY, the IC50 on HLA-A*2301 is 1.9 µM; against HLA-A*3002 it was 0.0014 µM; at HLA-A*2402, 3.17 µM; at HLA-A*2902, 0.544 µM.
For AYRDLCIVY, the IC50 at HLA-A*2301 was determined as 1.48 µM; on HLA-A*3002, 0.066 µM; on HLA-A*2402 it was 2.09 µM; at HLA-A*2902, 7.12 µM.
Take KENLWVTVY: the IC50 at HLA-B*1801 was determined as 0.184 µM; against HLA-B*4001, 2.74 µM; on HLA-B*4002, 0.373 µM; against HLA-B*4402, 0.308 µM; against HLA-B*4501 it was 6.22 µM.
Consider NYSVYGNTF, for which the IC50 was 0.029 µM against HLA-A*2301, 2.56 µM at HLA-A*3002, 0.028 µM at HLA-A*2402 and 9.12 µM on HLA-A*2902.
In the case of AENLPVTVY, the IC50 against HLA-B*1801 worked out at 0.02 µM; against HLA-B*4001, 0.205 µM; on HLA-B*4402, 0.356 µM; at HLA-B*4501, 0.246 µM.
For AEPAAEGVGA, the IC50 is above 8.12 µM against HLA-B*1801, 4.12 µM against HLA-B*4001, above 22.6 µM against HLA-B*4402 and 0.104 µM at HLA-B*4501.
For the sequence SYKSSKRDKF, the IC50 on HLA-A*2301 came to 0.797 µM; at HLA-A*3002 (Binding affinity to A*3002 (expressed as an IC50)) it was 0.088 µM; at HLA-A*2402, 0.256 µM; on HLA-A*2902 (Binding affinity to A*2902 (expressed as an IC50)) it was 12.6 µM.
With AENLWVTKY, the IC50 turned out to be 0.511 µM against HLA-B*1801, 1.01 µM against HLA-B*4001, 2 µM at HLA-B*4002 and 0.201 µM on HLA-B*4501.
